Experimental data reported in patent publication US20230339874A1, “PIPERAZINYL COMPOUNDS AND METHODS FOR TREATING NEMATODE INFECTIONS” (The Governing Council of the University of Toronto, priority 2020, published 2023).
Where two headings read alike, the source gives them in different places.

Tests used:
[1] = system: Pristionchus pacificus young adult animals; test: Pristionchus pacificus young adult abnormal locomotory behaviour on solid agar; type: in vivo; conditions: read-out: P. pacificus, young adult 1 h any phene at 1 h (EC50 (μM))
Strongyloides ratti L3 = type: in vivo; conditions: 72 h incubation, 1 replicate
[2] = system: Heligmosomoides polygyrus larval stage 3 (L3) worms; type: in vivo; conditions: 72 h incubation, one replicate
[3] = system: Danio rerio (zebrafish) embryos; test: Danio rerio (zebrafish) embryo abnormal developmental phenotype; type: in vivo
C. elegans L3 larvae = C. elegans L3 larvae abnormal locomotory behaviour on solid agar; conditions: solid agar MYOB + E. coli OP50, mean of 4 replicates; for % C. elegans L3 larvae any phene 1 h (conc.): 1 h exposure; for % C. elegans L3 larvae any phene 6 h (conc.): 6 h exposure; for % C. elegans L3 larvae any phene 24 h (conc.): 24 h exposure
Experimental: 20 animals were scored after either 1, 6 or 24 hours of exposure to drug (as indicated) per replicate. […] Data are reported as the mean % of animals with abnormal phenotype over 4 independent replicates.

[4] = system: D. immitis larval stage 3 (L3) worms; test: D. immitis L3 development assay; type: in vivo; conditions: 72 h, read-out: D. immitis L3 development EC50 (μM)
[5] = read-out: D. rerio (zebrafish) any phenotype EC50 (μM)

SMILES | EC50 ([1]; 1 h) [µM] | S. ratti L3 % lethality 25 μM (Strongyloides ratti L3) [%] | H. Polygyrus % lethality L3 25 μM [2] [%] | EC50 [3, 5] [µM] | % C. elegans L3 larvae any phene 1 h (conc.) (C. elegans L3 larvae; 3.75 uM) [%] | % C. elegans L3 larvae any phene 6 h (conc.) (C. elegans L3 larvae; 3.75 uM) [%] | % C. elegans L3 larvae any phene 24 h (conc.) (C. elegans L3 larvae; 3.75 uM) [%] | % C. elegans L3 larvae any phene 1 h (conc.) (C. elegans L3 larvae; 15 uM) [%] | % C. elegans L3 larvae any phene 6 h (conc.) (C. elegans L3 larvae; 15 uM) [%] | % C. elegans L3 larvae any phene 24 h (conc.) (C. elegans L3 larvae; 15 uM) [%] | % C. elegans L3 larvae any phene 1 h (conc.) (C. elegans L3 larvae; 60 uM) [%] | % C. elegans L3 larvae any phene 6 h (conc.) (C. elegans L3 larvae; 60 uM) [%] | % C. elegans L3 larvae any phene 24 h (conc.) (C. elegans L3 larvae; 60 uM) [%] | EC50 ([1]; 1 h exposure, tested at 3.75, 15 and 60 μM, NA = not active, no phenotype at 60 μM) [µM] | EC50 [4] [µM] | EC50 ([3]; 1 day post fertilization embryos through 48 h of development, tested at 15 and 3.75 μM, select compounds at 60 and 30 μM, read-out: D. rerio (zebrafish) any phenotype EC50) [µM]
CC1CCC(N2CCN(c3cccc(Cl)c3)CC2)C1 (centres unmarked) [VI-d] | 2.5 | 17.9 | 56.5 | 15 | 80.0 | 11.7 | 0.0 | 100.0 | 59.2 | 0.0 | 100.0 | 100.0 | 66.7 | – | – | –
O=[N+]([O-])c1ccc(CN2CCN(C3CCCC3)CC2)cc1 [II-b] | > 60 | – | – | – | 0.0 | 0.8 | 0.0 | 2.5 | 0.0 | 0.0 | 23.3 | 29.2 | 0.0 | – | – | –
O=C(C1CCCCC1)N1CCN(c2ccc([N+](=O)[O-])cc2)CC1 [III-a] | – | – | – | – | 0.8 | 0.8 | 0.0 | 0.8 | 5.8 | 0.0 | 4.2 | 24.2 | 0.0 | > 60 | > 50 | > 15
FC(F)(F)c1cccc(N2CCN(CC3CC4C=CC3C4)CC2)c1 (centres unmarked) [VI-f] | 2.8 | 0 | 0 | 7.8 | 34.2 | 0.0 | 0.0 | 81.7 | 83.2 | 52.5 | 100.0 | 100.0 | 92.5 | – | – | –
FC(F)(F)c1cccc(N2CCN(CC3CCCCC3)CC2)c1 [VI-g] | – | 0 | 11.6 | 29.3 | 9.2 | 0.0 | 0.0 | 65.0 | 21.7 | 0.0 | 94.2 | 54.2 | 1.7 | – | – | –
CCN1CCN(CC2CCCCC2)CC1 [I-a] | > 60 | – | – | > 15 | 3.3 | 0.0 | 0.0 | 6.7 | 0.0 | 0.0 | 19.2 | 5.8 | 0.0 | – | – | –
FC(F)(F)c1cccc(N2CCN(C3CCCCCCC3)CC2)c1 [VI-i] | 49.6 | 0 | 11.2 | 4 | 26.7 | 0.0 | 0.0 | 70.0 | 0.0 | 0.0 | 96.7 | 58.3 | 5.0 | – | > 50 | –
Fc1ccccc1N1CCN(C2CCCCCC2)CC1 [VI-j] | 41.5 | 66.7 | 35.4 | 21.1 | 25.8 | 0.8 | 0.0 | 69.2 | 12.5 | 0.0 | 100.0 | 41.7 | 9.2 | – | – | –
